Experimental data from the Deep4Chem optical property database.
Blank lines part the entries; values can stand above or below the compound they belong to.

Test: photoluminescence quantum yield (fraction); solvent given as SMILES
[1] = in O=P(c1ccccc1)(c1ccccc1)c1ccccc1Oc1ccccc1P(=O)(c1ccccc1)c1ccccc1

SMILES: CC(C)(C)c1ccc2oc3nc4oc5ccc(N(c6ccccc6)c6ccccc6)cc5c4cc3c2c1
photoluminescence quantum yield (in ClC(Cl)Cl): 0.083

SMILES: Cn1nc(-c2ccccc2)c2n[nH]nc2/c1=N\c1ccccn1
photoluminescence quantum yield (in CC#N): 0.05
photoluminescence quantum yield (in CCO): 0.06
photoluminescence quantum yield (in Cc1ccccc1): 0.07

SMILES: CC(C)(C)c1ccc2oc3nc4oc5cc(-n6c7ccccc7c7ccccc76)ccc5c4cc3c2c1
photoluminescence quantum yield (in ClC(Cl)Cl): 0.714

SMILES: COc1ccc(C2=C(c3ccc(-c4ccccc4)cc3)C(c3ccccc3)=[N+]3C2=Nc2c(-c4ccc(OC)cc4)c(-c4ccc(-c5ccccc5)cc4)c(-c4ccccc4)n2[B-]3(F)F)cc1
photoluminescence quantum yield (in Cc1ccccc1): 0.01

SMILES: CCC1=C(C)C2=C(c3cc(C(=O)Cl)cc(C4=C5C(C)=C(CC)C(C)=[N+]5[B-](F)(F)n5c(C)c(CC)c(C)c54)c3)c3c(C)c(CC)c(C)n3[B-](F)(F)[N+]2=C1C
photoluminescence quantum yield (in C1CCOC1): 0.87
photoluminescence quantum yield (in CC#N): 0.41
photoluminescence quantum yield (in CN(C)C=O): 0.61
photoluminescence quantum yield (in Cc1ccccc1): 0.83
photoluminescence quantum yield (in ClC(Cl)Cl): 0.7

SMILES: COc1cc(C#Cc2ccccc2)c(C#Cc2ccccc2)cc1OC
photoluminescence quantum yield (in CC#N): 0.81

SMILES: N#Cc1ccc(/C=C/c2c3ccccc3cc3ccccc23)cc1
photoluminescence quantum yield (in CC1CCCCC1): 0.27
photoluminescence quantum yield (in CC#N): 0.003
photoluminescence quantum yield (in CO): 0.029
photoluminescence quantum yield (in Cc1ccccc1): 0.23
photoluminescence quantum yield (in ClC(Cl)Cl): 0.05

SMILES: N#Cc1cc2ccc(cc2)c2cccc3cccc(c4ccc(cc4)cc(C#N)c4ccc(cc4)c4cccc5cccc(c6ccc1cc6)c54)c32
photoluminescence quantum yield (in Cc1ccccc1): 0.55

SMILES: c1coc(-c2nc3ccccc3[nH]2)c1
photoluminescence quantum yield (in C1CCOC1): 0.87
photoluminescence quantum yield (in CCCCCC): 0.95
photoluminescence quantum yield (in CCO): 0.93
photoluminescence quantum yield (in CCOCC): 0.94
photoluminescence quantum yield (in CO): 0.97
photoluminescence quantum yield (in ClC(Cl)Cl): 0.28
photoluminescence quantum yield (in ClCCl): 0.86
photoluminescence quantum yield (in O): 0.96

SMILES: Cn1c(/C=C/c2ccc(/C=C/c3nc4ccccc4[nH]3)cc2)[n+](C)c2ccccc21
photoluminescence quantum yield (in C1CCOC1): 0.157
photoluminescence quantum yield (in CC#N): 0.109
photoluminescence quantum yield (in CC(C)=O): 0.103
photoluminescence quantum yield (in CN(C)C=O): 0.12
photoluminescence quantum yield (in CO): 0.067
photoluminescence quantum yield (in CS(C)=O): 0.114
photoluminescence quantum yield (in O): 0.044

SMILES: COc1c2ccccc2c(OC)c2c1c1cccc(OC)c1n2C
photoluminescence quantum yield (in C1CCCCC1): 0.39
photoluminescence quantum yield (in CC#N): 0.4
photoluminescence quantum yield (in CO): 0.39
photoluminescence quantum yield (in ClCCl): 0.44

SMILES: CC1(C)c2ccccc2-c2cc3c4ccccc4n(-c4ccc(-c5nc(-c6ccccc6)nc(-c6ccccc6)n5)cc4)c3cc21
photoluminescence quantum yield [1]: 0.933

SMILES: c1ccc(-c2cc(-c3ccc(N4c5ccccc5C5(c6ccccc64)c4ccccc4N(c4ccc(-c6cc(-c7ccccc7)nc(-c7ccccc7)n6)cc4)c4ccccc45)cc3)nc(-c3ccccc3)n2)cc1
photoluminescence quantum yield [1]: 0.73

SMILES: CCCCCCCCCC[n+]1cc2ccc3c[n+](CCCCCCCCCC)cc4ccc(c1)c2c34
photoluminescence quantum yield (in CC#N): 0.5

SMILES: Cn1ccc(-c2nc3ccccc3nc2/C=C/N2CCCC2)c1
photoluminescence quantum yield (in C1CCCCC1): 0.184
photoluminescence quantum yield (in C1CCOC1): 0.495
photoluminescence quantum yield (in CC#N): 0.33
photoluminescence quantum yield (in CC(C)=O): 0.414
photoluminescence quantum yield (in CCO): 0.022
photoluminescence quantum yield (in CO): 0.006
photoluminescence quantum yield (in CS(C)=O): 0.325
photoluminescence quantum yield (in Cc1ccccc1): 0.469
photoluminescence quantum yield (in ClCCl): 0.611

SMILES: c1ccc(-c2nc(-c3ccccc3)nc(-c3cc(-n4c5ccccc5c5ccccc54)c(-n4c5ccccc5c5ccccc54)c(-n4c5ccccc5c5ccccc54)c3)n2)cc1
photoluminescence quantum yield (in O=P(c1ccccc1)(c1ccccc1)c1ccc2oc3ccc(P(=O)(c4ccccc4)c4ccccc4)cc3c2c1): 0.82
photoluminescence quantum yield [1]: 1

SMILES: O=C(O)COc1ccc2[nH]c3c(c2c1)CCCC3=O
photoluminescence quantum yield (in C1CCOC1): 0.01
photoluminescence quantum yield (in C1COCCO1): 0.007
photoluminescence quantum yield (in CC#N): 0.024
photoluminescence quantum yield (in CCCCCCCCCCCCO): 0.012
photoluminescence quantum yield (in CCCCCCCCCCO): 0.009
photoluminescence quantum yield (in CCCCCCCCO): 0.017
photoluminescence quantum yield (in CCCCCCO): 0.016
photoluminescence quantum yield (in CCCCO): 0.012
photoluminescence quantum yield (in CCO): 0.017
photoluminescence quantum yield (in CCOC(C)=O): 0.018
photoluminescence quantum yield (in CN(C)C=O): 0.07
photoluminescence quantum yield (in CO): 0.051
photoluminescence quantum yield (in CS(C)=O): 0.087
photoluminescence quantum yield (in Cc1ccccc1): 0.026
photoluminescence quantum yield (in O): 0.011
photoluminescence quantum yield (in c1ccccc1): 0.006

SMILES: COc1cc2c3cc(OC)c(OC)cc3c3cc4c(C)cc(=O)oc4cc3c2cc1OC
photoluminescence quantum yield (in CO): 0.02
photoluminescence quantum yield (in CS(C)=O): 0.056
photoluminescence quantum yield (in ClC(Cl)Cl): 0.08

SMILES: N#CC(C#N)=Cc1ccc2nc(C#Cc3ccc(N(c4ccc(C#Cc5nc6ccc(C=C(C#N)C#N)cc6s5)cc4)c4ccc(C#Cc5nc6ccc(C=C(C#N)C#N)cc6s5)cc4)cc3)sc2c1
photoluminescence quantum yield (in Cc1ccccc1): 0.61

SMILES: Cc1ccccc1-c1nc(-c2ccccc2C)nc(-c2ccc(N3c4ccccc4C4(c5ccccc5-c5ccccc54)c4ccccc43)cc2C)n1
photoluminescence quantum yield [1]: 0.62

Continued, values first:

photoluminescence quantum yield (in CCO): 0.0846
photoluminescence quantum yield (in ClCCl): 0.111
photoluminescence quantum yield (in O): 0.01
SMILES: O=Cc1ccc(-c2cccc(-c3nc4ccccc4s3)c2O)o1

photoluminescence quantum yield (in ClCCl): 0.38
SMILES: COc1ccc(-c2cnc(/C=C/c3ccc(C#N)cc3)o2)cc1OC

photoluminescence quantum yield (in ClCCl): 0.77
SMILES: Cc1cccc(-c2c3ccccc3c(-c3cccc(C)n3)c3ccccc23)n1

photoluminescence quantum yield (in C1CCCCC1): 0.16
photoluminescence quantum yield (in CC#N): 0.4
photoluminescence quantum yield (in CCO): 0.52
photoluminescence quantum yield (in CCOC(C)=O): 0.5
photoluminescence quantum yield (in O): 0.51
SMILES: Cc1oc(-c2ccccc2)nc1C(=O)O

photoluminescence quantum yield (in C1CCOC1): 0.0016
SMILES: C1=Cc2ccccc2C(=Cc2ccc(-c3cc(-c4ccc(C=C5c6ccccc6C=Cc6ccccc65)cc4)c(-c4ccc(C=C5c6ccccc6C=Cc6ccccc65)cc4)cc3-c3ccc(C=C4c5ccccc5C=Cc5ccccc54)cc3)cc2)c2ccccc21

photoluminescence quantum yield (in C1CCOC1): 0.031
photoluminescence quantum yield (in CCCCCC): 0.895
photoluminescence quantum yield (in ClC(Cl)Cl): 0.204
photoluminescence quantum yield (in ClCCl): 0.029
SMILES: CN1C(=O)c2cccc3c(-n4c5ccccc5c5ccccc54)ccc(c23)C1=O

photoluminescence quantum yield (in ClCCl): 0.9
SMILES: C[Si]1(C)c2cc(-c3ccccc3)ccc2C=Cc2ccc(-c3ccccc3)cc21

photoluminescence quantum yield (in ClCCl): 0.007
SMILES: O=[N+]([O-])c1ccc(C#Cc2ccc3ccc(C#Cc4ccc([N+](=O)[O-])cc4)cc3c2)cc1

photoluminescence quantum yield (in ClCCl): 0.82
SMILES: CC(C)(C)c1cc2ccc3c(N(c4ccccc4)c4ccccc4)cc(N(c4ccccc4)c4ccccc4)c4ccc(c1)c2c34

photoluminescence quantum yield (in ClCCl): 0.11
SMILES: CCN(CC)c1c2ccc(=[N+]3CCCCC3)cc-2oc2cc(N3CCCCC3)ccc12

photoluminescence quantum yield (in ClCCl): 0.21
SMILES: N#Cc1ccc(-c2nc(-c3ccccc3)c3ccccn23)cc1

photoluminescence quantum yield (in ClC(Cl)Cl): 0.87
SMILES: CCCCc1cc(-c2cccc(COC)c2)oc1-c1cccc(COC)c1

photoluminescence quantum yield (in ClCCl): 0.28
SMILES: Cc1ccc(-c2cccc3ncc(-c4ccccc4)n23)cc1

photoluminescence quantum yield (in C1COCCO1): 0.16
photoluminescence quantum yield (in CC#N): 0.13
photoluminescence quantum yield (in CCCCCC): 0.16
photoluminescence quantum yield (in CCCCCCC): 0.16
photoluminescence quantum yield (in CCCO): 0.13
photoluminescence quantum yield (in CCOC(C)=O): 0.13
photoluminescence quantum yield (in CS(C)=O): 0.21
photoluminescence quantum yield (in ClC(Cl)Cl): 0.18
photoluminescence quantum yield (in ClCCl): 0.22
SMILES: COc1ccc(C#Cc2ccc(C#N)cc2)cc1OC

photoluminescence quantum yield (in ClCCl): 0.8
SMILES: C(#Cc1cccc(C#Cc2ccc(-n3c4ccccc4c4ccccc43)cc2)c1)c1ccc(-n2c3ccccc3c3ccccc32)cc1

photoluminescence quantum yield (in ClC(Cl)Cl): 0.074
SMILES: FC(F)(F)c1ccc2oc3nc4oc5ccc(-n6c7ccccc7c7ccccc76)cc5c4cc3c2c1

photoluminescence quantum yield (in ClCCl): 0.4
photoluminescence quantum yield (in OCC(F)(F)F): 0.26
SMILES: FC(F)(F)C(F)(F)C(F)(F)C(F)(F)C(F)(F)C(F)(F)CCOc1nnc(Cl)nn1
